This is an account of results in patent publication US11180462B2, “Microbiocidal oxadiazole derivatives” (SYNGENTA PARTICIPATIONS AG, priority 2015, dated 2021).

The test system of the assay is Glomerella lagenarium (Colletotrichum lagenarium). Nature of the assay: Fungicidal activity against Glomerella lagenarium (Colletotrichum lagenarium) liquid culture / cucumber / preventative (anthracnose). The assay is classed as cell-based. The conditions noted are these: Colletotrichum orbiculare; 20 ppm in the applied formulation; liquid culture (PDB), growth inhibition measured photometrically after 3 to 4 days; compared to untreated control; read-out: disease control. Here is the method: Mycelia fragments or conidia suspensions of a fungus prepared either freshly from liquid cultures of the fungus or from cryogenic storage, are directly mixed into nutrient broth. DMSO solutions of the test compound (max. 10 mg/ml) are diluted with 0.025% Tween20 by a factor of 50 and 10 μl of this solution is pipetted into a microtiter plate (96-well format). The nutrient broth containing the fungal spores/mycelia fragments is then added to give an end concentration of the tested compound. The test plates are incubated in the dark at 24° C. and 96% relative humidity. The inhibition of fungal growth is determined photometrically after 2 to 7 days, depending on the pathosystem, and percent antifungal activity relative to the untreated check is calculated.
Fungicidal activity against Glomerella lagenarium (Colletotrichum lagenarium) liquid culture/cucumber/Preventative (Anthracnose)
Conidia of the fungus from cryogenic storage are directly mixed into nutrient broth (PDB—potato dextrose broth). After placing a (DMSO) solution of test compound into a microtiter plate (96-well format), the nutrient broth containing the fungal spores is added.
The following compounds at 20 ppm in the applied formulation give at least 80% disease control in this test when compared to untreated control under the same conditions, which show extensive disease development.

SMILES strings stand for the structures.

Turning to `CCCON(Cc1ccc(-c2noc(C(F)(F)F)n2)cc1)C(=O)C(C)C` [Compound 1.284, 2-methyl-N-propoxy-N-[[4-[5-(trifluoromethyl)-1,2,4-oxadiazol-3-yl]phenyl]methyl]-propanamide], the inhibition of growth at 20 ppm is at least 80%.

Take `O=C(C1CC1F)N(Cc1ccc(-c2noc(C(F)(F)F)n2)cc1)OCc1ccc(Cl)cc1` (stereo not shown) [Compound 1.558, N-[(4-chlorophenyl)-methoxy]-2-fluoro-N-[[4-[5-(trifluoromethyl)-1,2,4-oxadiazol-3-yl]phenyl]methyl]-cyclopropane-carboxamide]: the inhibition of growth at 20 ppm was at least 80%.

As to `CCCC(C)(C)C(=O)N(Cc1ccc(-c2noc(C(F)(F)F)n2)cc1)C1CC1` [Compound 1.85, N-cyclopropyl-2,2-dimethyl-N-[[4-[5-(trifluoromethyl)-1,2,4-oxadiazol-3-yl]phenyl]methyl]-pentanamide], the inhibition of growth at 20 ppm is at least 80%.

Turning to `O=C(C1OCCO1)N(Cc1ccc(-c2noc(C(F)(F)F)n2)cc1)OCc1ccc(Cl)cc1` [Compound 1.560, N-[(4-chlorophenyl)-methoxy]-N-[[4-[5-(trifluoromethyl)-1,2,4-oxadiazol-3-yl]phenyl]methyl]-1,3-dioxolane-2-carboxamide], the inhibition of growth at 20 ppm is at least 80%.

On to `CCC(C)N(Cc1ccc(-c2noc(C(F)(F)F)n2)cc1)C(=O)C1(F)CC1` (stereo not shown) [Compound 1.393, 1-fluoro-N-sec-butyl-N-[[4-[5-(trifluoromethyl)-1,2,4-oxadiazol-3-yl]phenyl]methyl]-cyclopropane-carboxamide], for which the inhibition of growth at 20 ppm was at least 80%.

Turning to `CON(C(=O)C1CCCC1)C(C)c1ccc(-c2noc(C(F)(F)F)n2)cc1` (stereo not shown) [Compound 1.257], the inhibition of growth at 20 ppm is at least 80%.

Turning to `CCC(CC(=O)N(Cc1ccc(-c2noc(C(F)(F)F)n2)cc1)C1CC1)C(F)(F)F` (stereo not shown) [Compound 1.148, N-cyclopropyl-3-(trifluoromethyl)-N-[[4-[5-(trifluoromethyl)-1,2,4-oxadiazol-3-yl]phenyl]methyl]-pentanamide], the inhibition of growth at 20 ppm was at least 80%.

Consider `CCC(COC)C(=O)N(Cc1ccc(-c2noc(C(F)(F)F)n2)cc1)C(C)CC` (stereo not shown) [Compound 1.397, 2-(methoxymethyl)-N-sec-butyl-N-[[4-[5-(trifluoromethyl)-1,2,4-oxadiazol-3-yl]phenyl]methyl]-butanamide], for which the inhibition of growth at 20 ppm was at least 80%.

Turning to `C=CC(=O)N(Cc1ccc(-c2noc(C(F)(F)F)n2)cc1)OCCC` [Compound 1.301, N-propoxy-N-[[4-[5-(trifluoromethyl)-1,2,4-oxadiazol-3-yl]phenyl]methyl]-prop-2-enamide], the inhibition of growth at 20 ppm was at least 80%.

Regarding `CON(Cc1ccc(-c2noc(C(F)(F)F)n2)cc1)C(=O)c1ccc(Cl)cc1Cl` [Compound 1.9, 2,4-dichloro-N-methoxy-N-[[4-[5-(trifluoromethyl)-1,2,4-oxadiazol-3-yl]phenyl]methyl]-benzamide], the inhibition of growth at 20 ppm was at least 80%.

With `CCCON(Cc1ccc(-c2noc(C(F)(F)F)n2)cc1)C(=O)C=CC(C)=O` [Compound 1.310, 4-oxo-N-propoxy-N-[[4-[5-(trifluoromethyl)-1,2,4-oxadiazol-3-yl]phenyl]methyl]-pent-2-enamide], the inhibition of growth at 20 ppm is at least 80%.

Take `CCCON(Cc1ccc(-c2noc(C(F)(F)F)n2)cc1)C(=O)C(CC)COC` (stereo not shown) [Compound 1.311, 2-(methoxymethyl)-N-propoxy-N-[[4-[5-(trifluoromethyl)-1,2,4-oxadiazol-3-yl]phenyl]methyl]-butanamide]: the inhibition of growth at 20 ppm is at least 80%.

Turning to `CON(Cc1ccc(-c2noc(C(F)(F)F)n2)cc1)C(=O)OCc1ccccc1` [Compound 2.10, benzyl N-methoxy-N-[[4-[5-(trifluoromethyl)-1,2,4-oxadiazol-3-yl]phenyl]methyl]-carbamate], the inhibition of growth at 20 ppm was at least 80%.

As for `CC#CC(=O)N(Cc1ccc(-c2noc(C(F)(F)F)n2)cc1)OCCC` [Compound 1.282, N-propoxy-N-[[4-[5-(trifluoromethyl)-1,2,4-oxadiazol-3-yl]phenyl]methyl]but-2-ynamide], the inhibition of growth at 20 ppm is at least 80%.

Turning to `CCCCON(Cc1ccc(-c2noc(C(F)(F)F)n2)cc1)C(=O)C(C)C` [Compound 1.633, N-butoxy-2-methyl-N-[[4-[5-(trifluoromethyl)-1,2,4-oxadiazol-3-yl]phenyl]methyl]-propanamide], the inhibition of growth at 20 ppm is at least 80%.

As to `CCC(C)N(Cc1ccc(-c2noc(C(F)(F)F)n2)cc1)C(=O)C1CCC1` (stereo not shown) [Compound 1.381, N-sec-butyl-N-[[4-[5-(trifluoromethyl)-1,2,4-oxadiazol-3-yl]phenyl]methyl]-cyclobutane-carboxamide], the inhibition of growth at 20 ppm was at least 80%.

For the compound `CCCC(=O)N(Cc1ccc(-c2noc(C(F)(F)F)n2)cc1)OCc1ccc(Cl)cc1` [Compound 1.554, N-[(4-chlorophenyl)-methoxy]-N-[[4-[5-(trifluoromethyl)-1,2,4-oxadiazol-3-yl]phenyl]methyl]-butanamide], the inhibition of growth at 20 ppm was at least 80%.

Take `O=C(C1=CCCC1)N(Cc1ccc(-c2noc(C(F)(F)F)n2)cc1)CC1CCCO1` (stereo not shown) [Compound 1.420, N-(tetrahydrofuran-2-ylmethyl)-N-[[4-[5-(trifluoromethyl)-1,2,4-oxadiazol-3-yl]phenyl]methyl]-cyclopentene-1-carboxamide]: the inhibition of growth at 20 ppm is at least 80%.

Consider `O=C(C1CC1)N(Cc1ccc(-c2noc(C(F)(F)F)n2)cc1)OCc1ccc(Cl)cc1` [Compound 1.561, N-[(4-chlorophenyl)-methoxy]-N-[[4-[5-(trifluoromethyl)-1,2,4-oxadiazol-3-yl]phenyl]methyl]-cyclopropane-carboxamide], for which the inhibition of growth at 20 ppm was at least 80%.

Consider `C#CCN(Cc1ccc(-c2noc(C(F)(F)F)n2)cc1)C(=O)C1(C)CC1(Cl)Cl` (stereo not shown) [Compound 1.174, 2,2-dichloro-1-methyl-N-prop-2-ynyl-N-[[4-[5-(trifluoromethyl)-1,2,4-oxadiazol-3-yl]phenyl]methyl]-cyclopropane-carboxamide], for which the inhibition of growth at 20 ppm was at least 80%.

`CCCON(Cc1ccc(-c2noc(C(F)(F)F)n2)cc1)C(=O)CC` [Compound 1.303, N-propoxy-N-[[4-[5-(trifluoromethyl)-1,2,4-oxadiazol-3-yl]phenyl]methyl]-propanamide]: the inhibition of growth at 20 ppm is at least 80%.

`CCCCC(=O)N(Cc1ccc(-c2noc(C(F)(F)F)n2)cc1)C(C)CC` (stereo not shown) [Compound 1.409, N-sec-butyl-N-[[4-[5-(trifluoromethyl)-1,2,4-oxadiazol-3-yl]phenyl]methyl]-pentanamide]: the inhibition of growth at 20 ppm was at least 80%.

For the compound `O=C(C1CC1F)N(Cc1ccc(-c2noc(C(F)(F)F)n2)cc1)OCC=C(Cl)Cl` (stereo not shown) [Compound 1.545, N-(3,3-dichloroallyloxy)-2-fluoro-N-[[4-[5-(trifluoromethyl)-1,2,4-oxadiazol-3-yl]phenyl]methyl]-cyclopropane-carboxamide], the inhibition of growth at 20 ppm was at least 80%.

With `O=C(c1cccc(C(F)(F)F)c1)N(Cc1ccc(-c2noc(C(F)(F)F)n2)cc1)C1CC1` [Compound 1.88, N-cyclopropyl-3-(trifluoromethyl)-N-[[4-[5-(trifluoromethyl)-1,2,4-oxadiazol-3-yl]phenyl]methyl]-benzamide], the inhibition of growth at 20 ppm was at least 80%.

With `CCCON(Cc1ccc(-c2noc(C(F)(F)F)n2)cc1)C(=O)C1CC1(F)F` (stereo not shown) [Compound 1.286, 2,2-difluoro-N-propoxy-N-[[4-[5-(trifluoromethyl)-1,2,4-oxadiazol-3-yl]phenyl]methyl]-cyclopropane-carboxamide], the inhibition of growth at 20 ppm was at least 80%.

As to `CCCON(Cc1ccc(-c2noc(C(F)(F)F)n2)cc1)C(=O)C1(F)CC1` [Compound 1.307, 1-fluoro-N-propoxy-N-[[4-[5-(trifluoromethyl)-1,2,4-oxadiazol-3-yl]phenyl]methyl]-cyclopropane-carboxamide], the inhibition of growth at 20 ppm is at least 80%.

On to `O=C(Cc1ccccc1Cl)N(Cc1ccc(-c2noc(C(F)(F)F)n2)cc1)C1CC1` [Compound 1.94, 2-(2-chlorophenyl)-N-cyclopropyl-N-[[4-[5-(trifluoromethyl)-1,2,4-oxadiazol-3-yl]phenyl]methyl]-acetamide], for which the inhibition of growth at 20 ppm is at least 80%.

Turning to `O=C(CCl)N(Cc1ccc(-c2noc(C(F)(F)F)n2)cc1)OCC=C(Cl)Cl` [Compound 1.538, 2-chloro-N-(3,3-dichloroallyloxy)-N-[[4-[5-(trifluoromethyl)-1,2,4-oxadiazol-3-yl]phenyl]methyl]-acetamide], the inhibition of growth at 20 ppm is at least 80%.

For `CCCON(Cc1ccc(-c2noc(C(F)(F)F)n2)cc1)C(=O)CCCOC` [Compound 1.321, 4-methoxy-N-propoxy-N-[[4-[5-(trifluoromethyl)-1,2,4-oxadiazol-3-yl]phenyl]methyl]-butanamide], the inhibition of growth at 20 ppm is at least 80%.

For `CON(C(=O)C1(C)CC1)C(C)c1ccc(-c2noc(C(F)(F)F)n2)cc1` (stereo not shown) [Compound 1.268, N-methoxy-1-methyl-N-[1-[4-[5-(trifluoromethyl)-1,2,4-oxadiazol-3-yl]phenyl]ethyl]-cyclopropane-carboxamide], the inhibition of growth at 20 ppm is at least 80%.

Regarding `O=C(C1CCCC1)N(Cc1ccc(-c2noc(C(F)(F)F)n2)cc1)CC1CCCO1` (stereo not shown) [Compound 1.419, N-(tetrahydrofuran-2-ylmethyl)-N-[[4-[5-(trifluoromethyl)-1,2,4-oxadiazol-3-yl]phenyl]methyl]-cyclopentane-carboxamide], the inhibition of growth at 20 ppm was at least 80%.
